Source: patent US9181234B2, “Antibacterial compounds” (priority 2010, dated 2015)
≈ marks a conversion by molar mass, not a printed value.

What was measured:
[1] = system: Staphylococcus aureus (Isolate ID ATCC 29213); assay: Antibacterial activity, MIC, S. aureus; format: cell-based; settings: broth microdilution or agar dilution; for MIC: Staphylococcus aureus, ATCC29213, Gram positive strain; for Antibacterial Activity (MIC) S. aureus (ATCC 29213): Gram positive strain
Experimental: (§1) Bacterial Assay: Determination of Antibacterial Activity
(§2) Compounds of the invention were tested for antimicrobial activity by susceptibility testing in liquid or on solid media. MICs for compounds against each strain were determined by the broth microdilution or agar dilution method according to the guidelines of the Clinical Laboratories and Standards Institute, formerly the National Committee for Clinical Laboratory Standards (Clinical Laboratories and Standards Institute. Methods for Dilution Antimicrobial Susceptibility Tests for Bacteria That Grow Aerobically; Approved Standard—Seventh Edition. Document M7-A7. CLSI, Wayne, Pa., 2006; Clinical Laboratories and Standards Institute. The gram positive bacterial strains tested include S. aureus (Staphylococcus aureus (Isolate ID ATCC 29213)), E. faecalis (Enterococcus faecalis (Isolate ID ATCC 29212)) and S. pyogenes (Streptococcus pyogenes (Isolate ID ATCC 51339)). The gram negative bacterial strains tested include H. influenzae (Haemophilus influenzae (Isolate ID ATCC 49247))

physchem = settings: pH 7.4, aqueous buffer, kinetic from dmso stock
Experimental: Turbimetric Assay: Determination of Solubility
The solubility of the compounds was measured using a turbidimetric method. A series of doubling dilutions of compounds were prepared in neat dimethyl sulfoxide (DMSO). 5 μl samples were diluted twenty-fold into 95 μl volumes of 100 mM citrate buffer (pH 4), phosphate buffered saline (PBS, pH 7.4) or carbonate-bicarbonate buffer (pH 9) in microtitre assay plates and allowed to reach equilibrium at room temperature for 24 hours. The absorbance within each well of the plate was read spectrophotometrically at a wavelength of 620 nm. A precipitate forms when the maximum aqueous solubility level is reached. The value quoted is the highest concentration where the compound was in solution i.e. where no measurable precipitate was present. […] ND=not determined

[2] = system: Haemophilus influenzae (Isolate ID ATCC 49247); assay: Antibacterial activity, MIC, H. influenzae; format: cell-based; settings: Gram negative strain, broth microdilution or agar dilution; for MIC: Haemophilus influenzae, ATCC49247
Experimental: as §1, §2

[3] = system: Streptococcus pyogenes (Isolate ID ATCC 51339); assay: Antibacterial activity, MIC, S. pyogenes; format: cell-based; settings: broth microdilution or agar dilution; for MIC: Streptococcus pyogenes, ATCC51339, Gram positive strain; for Antibacterial Activity (MIC) S. pyogenes (ATCC 51339): Gram positive strain
Experimental: as §1, §2

[4] = Solubility Range (maximum solubility)

SMILES | MIC [1] | solubility at 24 h (physchem; Max Solubility) | solubility at 24 h (physchem; Solubility (pH 7.4)) | solubility at 24 h (physchem; Solubility Range) | solubility at 24 h (physchem; [4]) | MIC [2] | MIC [3] | Antibacterial Activity (MIC) S. aureus (ATCC 29213) [1] | Antibacterial Activity (MIC) H. influenzae (ATCC 49247) [2] | Antibacterial Activity (MIC) S. pyogenes (ATCC 51339) [3]
CCNC(=O)Nc1nc2cc(-c3cnc(N4CCC(C)(C(=O)O)CC4)nc3)cc(/C(C)=N/O)c2s1 [Compound 95] | 1 to 16 µg/mL (≈ 2.01 to 32.2 µM) | ≥ 800 µg/mL | ≥ 800 µg/mL | > 800 µg/mL | > 800 µg/mL | > 16 µg/mL | 0.25 to 1 µg/mL (≈ 0.502 to 2.01 µM) | – | – | –
CCNC(=O)Nc1nc2cc(-c3cnc(N4CCC(C)(C(=O)O)CC4)nc3)cc(/C(C)=N/OCC)c2s1 [Compound 96] | ≤ 0.25 µg/mL | ≥ 800 µg/mL | ≥ 800 µg/mL | > 800 µg/mL | > 800 µg/mL | 1 to 16 µg/mL (≈ 1.9 to 30.4 µM) | 0.25 to 1 µg/mL (≈ 0.476 to 1.9 µM) | – | – | –
CCNC(=O)Nc1nc2cc(-c3cnc(N4CCC(C)(C(=O)O)CC4)nc3)cc(C(=O)NCC)c2s1 [Compound 97, 1-[5-[7-(Ethylcarbamoyl)-2-(ethylcarbamoylamino)-1,3-benzothiazol-5-yl]pyrimidin-2-yl]-4-methyl-piperidine-4-carboxylic acid] | > 16 µg/mL | ≥ 800 µg/mL | ≥ 800 µg/mL | > 800 µg/mL | > 800 µg/mL | > 16 µg/mL | 1 to 16 µg/mL (≈ 1.95 to 31.3 µM) | – | – | –
CCNC(=O)Nc1nc2cc(-c3cnc(N4CCC(CC)(C(=O)O)CC4)nc3)cc(/C=N/OC)c2s1 [Compound 189, 4-Ethyl-1-[5-[2-(ethylcarbamoylamino)-7-[(E)-methoximinomethl]-1,3-benzothiazol-5-yl]pyrimidin-2-yl]piperidine-4-carboxylic acid] | – | – | – | – | – | – | – | A (“A” activity ≦0.25 μg/mL) | C (“C” activity >1.0 μg/mL-16 μg/mL) | A (“A” activity ≦0.25 μg/mL)
CCNC(=O)Nc1nc2cc(-c3nc(N4CCC(C)(C(=O)O)CC4)ns3)cc(-c3ccccn3)c2s1 [Compound 233, 1-(5-{2-[(ethylcarbamoyl)amino]-7-(pyridin-2-yl)-1,3-benzothiazol-5-yl}-1,2,4-thiadiazol-3-yl)-4-methylpiperidine-4-carboxylic acid] | – | – | – | – | – | – | – | B (“B” activity >0.25 μg/mL-1.0 μg/mL) | D (“D” activity >16 μg/mL) | B (“B” activity >0.25 μg/mL-1.0 μg/mL)

Continued, in another order:

MIC [1] | solubility at 24 h (physchem; Max Solubility) | solubility at 24 h (physchem; Solubility (pH 7.4)) | solubility at 24 h (physchem; Solubility Range) | solubility at 24 h (physchem; [4]) | MIC [2] | MIC [3] | SMILES | Antibacterial Activity (MIC) S. aureus (ATCC 29213) [1] | Antibacterial Activity (MIC) H. influenzae (ATCC 49247) [2] | Antibacterial Activity (MIC) S. pyogenes (ATCC 51339) [3]
≤ 0.25 µg/mL | ≥ 800 µg/mL | ≥ 800 µg/mL | > 800 µg/mL | > 800 µg/mL | 1 to 16 µg/mL (≈ 1.82 to 29.1 µM) | ≤ 0.25 µg/mL | CCNC(=O)Nc1nc2cc(-c3cnc(N4CCC(C)(C(=O)O)CC4)nc3)cc(-c3ncc(C)cc3F)c2s1 [Compound 93] | – | – | –
1 to 16 µg/mL (≈ 1.73 to 27.6 µM) | ≥ 800 µg/mL | ≥ 800 µg/mL | > 800 µg/mL | > 800 µg/mL | > 16 µg/mL | 1 to 16 µg/mL (≈ 1.73 to 27.6 µM) | CCNC(=O)Nc1nc2cc(-c3cnc(N4CCC(C)(C(=O)O)CC4)nc3)cc(/C(C)=N/OCC(F)(F)F)c2s1 [Compound 94] | – | – | –
≤ 0.25 µg/mL | ≥ 800 µg/mL | ≥ 800 µg/mL | > 800 µg/mL | > 800 µg/mL | 1 to 16 µg/mL (≈ 1.9 to 30.4 µM) | ≤ 0.25 µg/mL | CCNC(=O)Nc1nc2cc(-c3cnc(N4CCC(CC)(C(=O)O)CC4)nc3)cc(/C(C)=N/OC)c2s1 [Compound 116, 4-ethyl-1-[5-[2-(ethylcarbamoylamino)-7-[(E)-N-methoxy-C-methyl-carbonimidoyl]-1,3-benzothiazol-5-yl]pyrimidin-2-yl]piperidine-4-carboxylic acid] | – | – | –
1 to 16 µg/mL (≈ 1.99 to 31.8 µM) | – | – | – | – | > 16 µg/mL | 1 to 16 µg/mL (≈ 1.99 to 31.8 µM) | CCNC(=O)Nc1cn2c(-n3cccn3)cc(-c3cnc(N4CCC(CC)(C(=O)O)CC4)nc3)cc2n1 [Compound 230, 4-ethyl-1-[5-[2-(ethylcarbamoylamino)-5-pyrazol-1-yl-imidazo[1,2-a]pyridin-7-yl]pyrimidin-2-yl]piperidine-4-carboxylic acid] | – | – | –
> 16 µg/mL | – | – | – | – | – | 1 to 16 µg/mL (≈ 2.04 to 32.7 µM) | CCNC(=O)Nc1cn2c(-n3cccn3)cc(-c3cnc(N4CCC(C)(C(=O)O)CC4)nc3)cc2n1 [Compound 231, 1-[5-[2-(ethylcarbamoylamino)-5-pyrazol-1-yl-imidazo[1,2-a]pyridin-7-yl]pyrimidin-2-yl]-4-methyl-piperidine-4-carboxylic acid] | – | – | –
